Source: article PMC10377643, “Exploration of Bis-Cinnamido-Polyamines as Intrinsic Antimicrobial Agents and Antibiotic Enhancers” (Biomolecules, 2023)
Values after ≈ are worked out from the molar mass of the structure shown.

Tests used:
C. albicans ATCC 90028 = test: Antifungal MIC, C. albicans (CO-ADD); type: cell-based; conditions: Candida albicans, ATCC90028, mean (n = 2)
Procedure: (§1) The susceptibility of bacterial strains S. aureus (ATCC 25923), E. coli (ATCC 25922) and P. aeruginosa (ATCC 27853) to antibiotics and compounds was determined using protocols reported previously. Additional antimicrobial evaluation against MRSA (ATCC 43300), Klebsiella pneumoniae (ATCC 700603), Acinetobacter baumannii (ATCC 19606), Candida albicans (ATCC 90028) and Cryptococcus neoformans (ATCC 208821) was undertaken at the Community for Open Antimicrobial Drug Discovery at The University of Queensland (Australia) according to their standard protocols reported previously.

MRSA ATCC 43300 = test: Antimicrobial MIC, MRSA (CO-ADD); type: cell-based, methicillin-resistant S. aureus; conditions: Staphylococcus aureus; MRSA ATCC 43300; mean (n = 2); read-out: MIC MRSA
Procedure: as §1

S. aureus ATCC 25923 = test: Antimicrobial MIC, S. aureus; type: cell-based; conditions: Staphylococcus aureus, ATCC25923, mean (n = 3)
Procedure: as §1

P. aeruginosa ATCC 27853 [1] = test: Doxycycline enhancement against P. aeruginosa; type: cell-based, Pseudomonas aeruginosa; conditions: doxycycline fixed at 4.5 µM
Procedure: (§2) Antibiotic enhancer concentrations were determined using previously reported protocols.
We then evaluated the set of analogues for the ability to enhance the antibiotic activity of doxycycline against P. aeruginosa ATCC 27853 and of erythromycin against E. coli ATCC 25922 (Table 2). In the case of doxycycline, a fixed concentration of the antibiotic of 4.5 μM, which is twenty-fold lower than the intrinsic MIC 90 μM against this organism, was used. Each of the test compounds was then evaluated at a range of concentrations varying from 3.125 to 50–100 μM, with the upper concentration dependent upon the compounds intrinsic MIC towards P. aeruginosa (Table 1). […] While the observation of cytotoxicity/hemolytic properties of 16a–c, 14f and 13f reduces our interest in these analogues, analogues 13b and 13d were identified as non-toxic and strong enhancers of the action of doxycycline towards P. aeruginosa.

[2] = system: C. neoformans ATCC 208821; test: Antifungal MIC, C. neoformans (CO-ADD); type: cell-based; conditions: Cryptococcus neoformans, ATCC208821, mean (n = 2)
Procedure: as §1

P. aeruginosa ATCC 27853 [3] = test: Antimicrobial MIC, P. aeruginosa; type: cell-based; conditions: Pseudomonas aeruginosa, ATCC27853, mean (n = 3)
Procedure: as §1

E. coli ATCC 25922 [4] = test: Antimicrobial MIC, E. coli; type: cell-based, Escherichia coli; conditions: mean (n = 3)
Procedure: as §1

E. coli ATCC 25922 [5] = test: Erythromycin enhancement against E. coli; type: cell-based, Escherichia coli; conditions: erythromycin fixed at 10.9 µM (8 µg/mL)
Procedure: as §2

Cytotoxicity assay = type: cell-based, human; conditions: human, HEK293 human embryonic kidney cells, mean (n = 2), read-out: Cytotoxicity (IC50), concentration of compound at 50% cytotoxicity
Procedure: Cytotoxicity assays were conducted using the protocols previously reported.

human red blood cells = test: Hemolytic assay; type: cell-based; conditions: mean (n = 2)
Procedure: Hemolysis assays were conducted using the protocols previously reported.

[6] = Escherichia coli, ATCC25922, E. coli ATCC 25922

| SMILES | MIC (C. albicans ATCC 90028) [µM] | MIC (MRSA ATCC 43300) [µM] | MIC (S. aureus ATCC 25923) [µM] | Dox/P. a: concentration required to restore doxycycline activity (P. aeruginosa ATCC 27853 [1]) [µM] | Dox/P. a: fold change (intrinsic MIC of test compound / combination MIC) (P. aeruginosa ATCC 27853 [1]) [fold] | MIC [2] [µM] | MIC (P. aeruginosa ATCC 27853 [3]) [µM] | MIC (E. coli ATCC 25922 [4]; [6]) [µM] | Eryth/E. c: concentration required to restore erythromycin activity (E. coli ATCC 25922 [5]) [µM] | Eryth/E. c: fold change (intrinsic MIC of test compound / combination MIC) (E. coli ATCC 25922 [5]) [fold] | IC50 (Cytotoxicity assay) [µM] | Hemolysis (HC10), concentration of compound at 10% hemolytic activity (human red blood cells) [µM] | MIC (E. coli ATCC 25922 [4]; E. coli ATCC 25922) [µM] |
| --- | --- | --- | --- | --- | --- | --- | --- | --- | --- | --- | --- | --- | --- |
| O=C(C=Cc1ccccc1)NCCCNCCCCNCCCNC(=O)C=Cc1ccccc1.O=C(O)C(F)(F)F.O=C(O)C(F)(F)F [Compound 13a, N^1,N^4-Bis(3-cinnamamidopropyl)butane-1,4-diaminium 2,2,2-trifluoroacetate] | > 46.3 | > 46.3 | 724 | 145 | 5 | > 46.3 | 724 | 724 | 145 | 5 |  |  |  |
| COc1ccc(/C=C/C(=O)NCCCNCCCCNCCCNC(=O)/C=C/c2ccc(OC)cc2)cc1.O=C(O)C(F)(F)F.O=C(O)C(F)(F)F [Compound 14a, N^1,N^4-Bis(3-((E)-3-(4-methoxyphenyl)acrylamido)propyl)butane-1,4-diaminium 2,2,2-trifluoroacetate] | > 42.6 | > 42.6 | 33.3 | 16.6 | > 16 |  | > 266 | 266 | 67 | 4 | > 42.6 | >42.6 |  |
| COc1ccc(/C=C/C(=O)NCCCNCCCCCCCNCCCNC(=O)/C=C/c2ccc(OC)cc2)cc1.O=C(O)C(F)(F)F.O=C(O)C(F)(F)F [Compound 14c, N^1,N^7-Bis(3-((E)-3-(4-methoxyphenyl)acrylamido)propyl)heptane-1,7-diaminium 2,2,2-trifluoroacetate] | > 40.4 | 20.2 | 31.5 | 31.5 | > 8 |  | > 252 | 252 | 126 | 2 | > 40.4 | >40.4 |  |
| COc1ccc(/C=C/C(=O)NCCCNCCCCCCCCCCNCCCNC(=O)/C=C/c2ccc(OC)cc2)cc1.O=C(O)C(F)(F)F.O=C(O)C(F)(F)F [Compound 14e, N^1,N^10-Bis(3-((E)-3-(4-methoxyphenyl)acrylamido)propyl)decane-1,10-diaminium 2,2,2-trifluoroacetate] | 38.3 | ≤ 0.3 | 1.87 | 60 | 4 | ≤ 0.3 | 240 | 120 |  |  | 2.3 | >38.3 |  |
| COc1ccc(/C=C/C(=O)NCCCNCCCCCCCCCCCCNCCCNC(=O)/C=C/c2ccc(OC)cc2)cc1.O=C(O)C(F)(F)F.O=C(O)C(F)(F)F [Compound 14f, N^1,N^12-Bis(3-((E)-3-(4-methoxyphenyl)acrylamido)propyl)dodecane-1,12-diaminium 2,2,2-trifluoroacetate] | > 37.1 | ≤ 0.29 | 3.62 | 7.24 | 32 |  | 232 | 7.2 | 3.62 | 2 | 24.3 |  | 7.24 |
| COc1ccc(/C=C/C(=O)NCCCNCCCCNCCCNC(=O)/C=C/c2ccc(OC)c(Br)c2)cc1Br.O=C(O)C(F)(F)F.O=C(O)C(F)(F)F [Compound 15a, N^1,N^4-Bis(3-((E)-3-(3-bromo-4-methoxyphenyl)acrylamido)propyl)butane-1,4-diaminium 2,2,2-trifluoroacetate] | 17.6 | 2.2 | 13.8 | 27.5 | > 8 | ≤ 0.28 | > 220 | 55 | 13.7 | 4 | > 35.2 |  |  |
| COc1ccc(/C=C/C(=O)NCCCNCCCCCCCNCCCNC(=O)/C=C/c2ccc(OC)c(Br)c2)cc1Br.O=C(O)C(F)(F)F.O=C(O)C(F)(F)F [Compound 15c, N^1,N^7-Bis(3-((E)-3-(3-bromo-4-methoxyphenyl)acrylamido)propyl)heptane-1,7-diaminium 2,2,2-trifluoroacetate] | 8.4 | ≤ 0.26 | 6.57 | 26.3 | > 8 | ≤ 0.26 | > 210 | 26 | 13.1 | 2 | > 33.7 |  |  |
| COc1ccc(/C=C/C(=O)NCCCNCCCCCCCCCCNCCCNC(=O)/C=C/c2ccc(OC)c(Br)c2)cc1Br.O=C(O)C(F)(F)F.O=C(O)C(F)(F)F [Compound 15e, N^1,N^10-Bis(3-((E)-3-(3-bromo-4-methoxyphenyl)acrylamido)propyl)decane-1,10-diaminium 2,2,2-trifluoroacetate] | 32.2 | ≤ 0.25 | 1.57 | 50.4 | 1 | 1 | 50.4 | 25.2 |  |  | > 32.2 | 24.1 |  |
| COc1ccc(/C=C/C(=O)NCCCNCCCCCCCCCCCCNCCCNC(=O)/C=C/c2ccc(OC)c(Br)c2)cc1Br.O=C(O)C(F)(F)F.O=C(O)C(F)(F)F [Compound 15f, N^1,N^12-Bis(3-((E)-3-(3-bromo-4-methoxyphenyl)acrylamido)propyl)dodecane-1,12-diaminium 2,2,2-trifluoroacetate] |  | ≤ 0.24 | 6.12 | 49.0 | > 4 | ≤ 0.24 | > 196 | 6.12 | 6.1 | 1 | 1.12 | 1.17 |  |
| OC(Cn1cncn1)(Cn1cncn1)c1ccc(F)cc1F [fluconazole, reference compound] | 0.4 (≈ 0.123 µg/mL) |  |  |  |  | 26 (≈ 7.96 µg/mL) |  |  |  |  |  |  |  |
| [H]/N=C(/N)N[C@H]1[C@H](O)[C@@H](O)[C@H](O[C@@H]2O[C@@H](C)[C@](O)(C=O)[C@H]2O[C@@H]2O[C@@H](CO)[C@H](O)[C@@H](O)[C@@H]2NC)[C@@H](N/C(N)=N\[H])[C@@H]1O [streptomycin, reference compound] |  |  | 21.5 (≈ 12.5 µg/mL) |  |  |  | 21.5 (≈ 12.5 µg/mL) | 21.5 (≈ 12.5 µg/mL) |  |  |  |  |  |
| CC/C(=C(\c1ccccc1)c1ccc(OCCN(C)C)cc1)c1ccccc1 [tamoxifen, reference compound] |  |  |  |  |  |  |  |  |  |  | 24 |  |  |
